The values below come from patent US20240317732A1, “A NEW MOLECULAR SCAFFOLD FOR TARGETING HRPN13” (THE UNITED STATES OF AMERICA AS REPRESENTED BY THE …, priority 2021, published 2024).

Data set [1] has as its target T1, hRpn13 Pru (Homo sapiens (Human), UniProt Q16186). Nature of the data set: Isothermal titration calorimetry (ITC) of hRpn13 Pru binding. Conditions: 25° C. How it is done: ITC experiments were performed at 25° C. on a MicroCal iTC200 system (Malvern, PA, USA). hRpn13 Pru, XL5, XL5 derivative, or RA190 were prepared in buffer C. One aliquot of 0.5 μL followed by 17 or 18 aliquots of 2.1 μL of 200 μM hRpn13 Pru was injected at 750 r.p.m. into a calorimeter cell (volume […]) that contained 20 μM XL5, XL5 derivative, or RA190. Blank experiments were performed by replacing XL5, XL5 derivative, or RA190 with buffer in the cell and the resulting data subtracted from the experimental data during analyses. The integrated interaction heat values were normalized as a function of protein concentration and the data were fit with MicroCal Origin 7.0-based software implementing the “One Set of Sites” model to yield binding affinity Ka (1/Kd), stoichiometry, and other thermodynamic parameters. Dissociation constants (Kd) as determined by ITC as well as relative binding affinities of selected compounds are presented n Table 1, while additional information on named compounds including structures, synthesis, and characterization is presented in Examples 3-9: […]

Data set [2] has as its target T1, hRpn13 Pru. Nature of the data set: Differential scanning fluorimetry, tryptophan quenching at 350 nm. The class given is binding. Conditions: 1 μM hRpn13 Pru, 20° C. The source says:
We conducted in silico docking screens of commercial libraries containing in total 63 million compounds by using the hRpn13 Pru:hRpn2 structure and hRpn2-binding site of hRpn13 as a binding pocket. Twenty-two potential lead compounds were selected for validation by biophysical assays. hRpn13 W108 is partially exposed when free but buried by hRpn2, enabling tryptophan quenching by differential scanning fluorimetry (DSF at λ350) for assaying binding and this approach was used to screen for compound binding to this site. 20 μM compound (separately for twenty compounds) was incubated with 1 μM hRpn13 Pru and fluorescence emission at 350 nm measured. […] The compounds were separately added at 10-fold molar excess to 20 μM ^15N-labeled hRpn13 Pru and binding assessed at 25° C. by 2D NMR for samples dissolved in NMR buffer (20 mM sodium phosphate, 50 mM NaCl, 2 mM DTT, 10% DMSO-d6 (deuterated DMSO), pH 6.5). […] XL5 addition caused hRpn13 signals to shift from free state positions to an observable bound state whereas spectral changes were not induced by the other compounds tested. […]
DSF experiments were performed on a PrometheusNT.48 instrument (NanoTemper Technologies, Germany) at 20° C. […] Each sample was loaded into three high sensitivity capillaries (NanoTemper, cat #PR-C006) and the emission of intrinsic tryptophan fluorescence at 350 nm was monitored.

Data set [3] concerns RPMI 8226 cells. Nature of the data set: MTT cell metabolism / cell viability assay in RPMI 8226. Conditions: RPMI 8226, 48 hours, up to 40 μM. It is filed as cell-based. How it is done:
Since previous hRpn13-targeting molecules induce apoptosis in multiple myeloma and colon cancer cells we tested whether XL5 restricts the RPMI 8226 multiple myeloma and HCT116 colon cancer cell lines by measuring metabolism with an MTT (3-(4,5-dimethylthiazol-2-yl)-2,5-diphenyltetrazolium bromide) assay. Experiments were also conducted in parallel with a HCT116 colon cancer cell line in which the exon encoding hRpn13 C88 is deleted, named trRpn13; this cell line expresses a truncated hRpn13 protein with a defective Pru and inability to bind the proteasome28. RPMI 8226 and WT (wild-type) or trRpn13 HCT116 cells seeded at 8,000 and 4,000 cells per well were treated with varying concentrations of XL5 extending to 40 μM and compared to cells incubated with equivalent amounts of DMSO vehicle control.
HCT116 WT or trRpn13 cells were seeded at 4,000 cells/well whereas RPMI 8226 cells were seeded at 8,000 cells/well with RPMI 1640 medium (no phenol red, Thermo Fisher Scientific 11835030) containing 2% fetal bovine serum in 96-well plates. Cells were treated with 0.4% DMSO (as a control) and this concentration was maintained with XL5, XL5-PROTACs XL5-VHL, XL5-VHL-2, XL5-CRBN, or XL5-IAP, and E3 ligands VHL-Ac, thalidomide (Selleckchem, catalog NO. S1193), or IAP-Bz at 10 μM, 20 μM, 30 μM or 40 μM concentration. After 48 hours, 0.35 mg/mL MTT was added for 4 hours of incubation. Stop solution (40% DMF, 10% SDS (W/V), 25 mM HCl, 2.5% acetic acid in H2O) was added to the cells and incubated overnight. Absorbance at 570 nm was measured by using CLARIOstar (BMG LABTECH).

The nature of data set [4]: Reactivity in mouse serum by LC-MS. It is filed as in vitro ADME. Conditions: 0.2 μM, room temperature, 24-hour time period. How it is done: To test for covalent interaction, an hRpn13 Pru sample was incubated with 10-fold molar excess XL5 or DMSO (as a vehicle control) and subjected to liquid chromatography-mass spectrometry (LC-MS). […] To test for general reactivity of XL5 towards exposed cysteines, 40 μM XL5 was incubated at 4° C. for two hours with 2 mM reduced L-glutathione serving as representative of a non-specific interactor with exposed cysteines. XL5-ligated glutathione was detected at only 2% abundance (FIG. 2B). Under identical conditions, 40 μM RA190 reacted with 2 mM reduced L-glutathione to yield products with one or two molecules ligated at 14% or 30% abundance, respectively. We also tested XL5 reactivity by incubating it at 0.2 μM with mouse serum (BioIVT) and monitoring the effect by LC-MS over a 24-hour time period to find only 6% reduction in the unligated compound.
To check for reactivity of XL5 in mouse serum, 0.2 μM XL5 was mixed with mouse serum (BioIVT) and aliquots of the spiked mixture left at room temperature for 0, 4, 8 and 24 hours. For each time point, six samples were extracted using 75% acetonitrile and 0.075% formic acid. The supernatant was transferred to polypropylene injection vials for LC-MS analysis. […]

Data set [5] addresses T1, hRpn13 Pru. Nature of the data set: 2D NMR (1H,15N HSQC) binding to 15N-labeled hRpn13 Pru. Conditions: assessed by ITC and NMR. The source says: We conducted in silico docking screens of commercial libraries containing in total 63 million compounds by using the hRpn13 Pru:hRpn2 structure and hRpn2-binding site of hRpn13 as a binding pocket. Twenty-two potential lead compounds were selected for validation by biophysical assays. hRpn13 W108 is partially exposed when free but buried by hRpn2, enabling tryptophan quenching by differential scanning fluorimetry (DSF at λ350) for assaying binding and this approach was used to screen for compound binding to this site. 20 μM compound (separately for twenty compounds) was incubated with 1 μM hRpn13 Pru and fluorescence emission at 350 nm measured. […] The compounds were separately added at 10-fold molar excess to 20 μM ^15N-labeled hRpn13 Pru and binding assessed at 25° C. by 2D NMR for samples dissolved in NMR buffer (20 mM sodium phosphate, 50 mM NaCl, 2 mM DTT, 10% DMSO-d6 (deuterated DMSO), pH 6.5). […]
For screening by ^1H, ^15N HSQC experiments, small molecule dissolved in DMSO-d6 was added to 20 μM or 250 μM ^15N-labeled hRpn13 Pru at a molar excess of 2-fold (for XL5) or 10-fold (for all compounds tested) in NMR buffer (20 mM sodium phosphate, 50 mM NaCl, 2 mM DTT, 10% DMSO-d6, pH 6.5). […] Three ^13C-half-filtered NOESY experiments were recorded with a 100 ms mixing time on asymmetrically labeled samples dissolved in NMR buffer. […]

In data set [6] the test system is hRpn13 / hRpn13-Pru. Nature of the data set: Immunoblot of hRpn13 species in RPMI 8226 cell lysates. It is filed as cell-based, human. Conditions: RPMI 8226 WT, 100 nM, 24 hours. How it is done: HCT116 WT, HCT116 trRpn13, RPMI 8226 or 293T cells were collected and washed with PBS followed by lysing in 1% Triton-TBS lysis buffer (50 mM Tris-HCl, pH 7.5, 150 mM NaCl, 1 mM PMSF) supplemented with protease inhibitor cocktail (Roche). Total protein concentration was determined by bicinchoninic acid (Pierce). Protein lysates were prepared in 1χ LDS (ThermoFisher, NP0007) buffer with 100 mM DTT and heating at 70° C. for 10 min, loaded onto 4-12% Bis-Tris polyacrylamide gels (Life Technologies), subjected to SDS-PAGE and transferred to Invitrolon polyvinylidene difluoride membranes (Life Technologies). The membranes were blocked in Tris-buffered saline with 0.1% Tween-20 (TBST) supplemented with 5% skim milk, incubated with primary antibody, washed in TBST, incubated with secondary antibody and washed extensively in TBST. Pierce™ ECL Western Blotting Substrate (32106; Thermo Fisher Scientific) or Amersham™ ECL™ Primer Western Blotting Detection Reagent (cytiva) was used for antibody signal detection.
To test whether the XL5-PROTACs cause ubiquitination and degradation of hRpn13, lysates from RPMI 8226 (FIG. 5C) cells treated with 40 μM XL5 orXL5-PROTAC compared to DMSO vehicle control were immunoprobed for hRpn13 and β-actin (loading control).

T1 sequence (Q16186 1-150): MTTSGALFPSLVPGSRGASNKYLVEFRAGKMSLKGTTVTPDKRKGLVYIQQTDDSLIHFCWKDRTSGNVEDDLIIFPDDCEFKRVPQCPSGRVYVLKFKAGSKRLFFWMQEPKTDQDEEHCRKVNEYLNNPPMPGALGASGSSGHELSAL

Turning to `Cl.N[C@@H](Cc1ccccc1)C(=O)N1C/C(=C/c2ccc(Cl)c(Cl)c2)C(=O)/C(=C\c2ccc(Cl)c(Cl)c2)C1` [RA190, reference compound], the “binding detected by ITC” value in data set [1] is listed as “did not detect binding”. The “tryptophan fluorescence emission quenching at 350 nm” value in data set [2] was “titration-dependent reduction in λ350 signal”. In the case of `CC(=O)N[C@H](C(=O)N1C[C@H](O)C[C@H]1C(=O)N[C@@H](C)c1ccc(-c2scnc2C)cc1)C(C)(C)C` [VHL-Ac, reference compound], in data set [3], the “metabolic activity / cell viability (MTT)” value is on record as “did not affect metabolic activity”. As for `Cc1ccc(C(=O)Nc2cccc(/C=C(\C#N)C(=O)Nc3ccccc3C(=O)O)c2)cc1` [XL5], the “reduction in the unligated compound in mouse serum” value in data set [4] came out at 6%. Turning to `CNc1ccc(C(=O)Nc2cccc(/C=C(\C#N)C(=O)Nc3ccccc3C(=O)O)c2)cc1` [XL24], in data set [1] (200 μM hRpn13 Pru into 20 μM compound, buffer C), binding was characterised by a dissociation constant (Kd) of 1740 ± 350 nM. The “change of affinity for hRpn13 Pru relative to XL5” value in data set [5] is reported as “little effect”. Consider `CC(C)C[C@H](NC(=O)[C@H](CCc1ccccc1)NC(=O)CN1CCOCC1)C(=O)N[C@@H](Cc1ccccc1)C(=O)N[C@@H](CC(C)C)C(=O)[C@@]1(C)CO1` [carfilzomib, reference compound], for which the “hRpn13-Pru level after proteasome inhibitor” value in data set [6] is “reduced levels of hRpn13-Pru”. Turning to `O=C1CCC(N2C(=O)c3ccccc3C2=O)C(=O)N1` (centres unmarked) [thalidomide, reference compound], the “metabolic activity / cell viability (MTT)” value in data set [3] is on record as “did not affect metabolic activity”.
